Measurements reported in patent publication US20250230193A1, “CYCLIC COMPOUND HAVING SELECTIVE KRAS INHIBITORY EFFECT ON HRAS AND NRAS” (CHUGAI SEIYAKU KABUSHIKI KAISHA, priority 2022, published 2025).
Read-outs that look alike come from different tables or passages of the source. *1 amine or outer side, *2 acyl side, *3 side chain or, on linkers, in order; H or OH if unused. Where a SMILES comes first, the peptide text is derived from it. Bridges are numbered along the chain shown (N, C = ends). [ ]: non-standard residue; d: D form. The star is where a group is joined. hPhe(3-Cl-4-CF3) = N[C@@H](CCc1ccc(C(F)(F)F)c(Cl)c1)C(=O)O; X5 = CCCN([C@H](C(=O)[*:2])C1CCCC1)[*:1]; NMeGly(cPent) = CN[C@H](C(=O)O)C1CCCC1; NMeD = CN[C@@H](CC(=O)O)C(=O)O; NMeL = CN[C@@H](CC(C)C)C(=O)O; Morpholide = C1CN(*)CCO1; NMeA = CN[C@@H](C)C(=O)O; Ac5c = NC1(C(=O)O)CCCC1; Aze = O=C(O)[C@@H]1CCN1; Sar = CNCC(=O)O

Key:
[1] = biological target: GDP-bound NRAS wild-type protein (Homo sapiens, UniProt P01111); assay: Binding to NRAS by surface plasmon resonance (SPR), Single Cycle Kinetics; conditions: SPR; for NRAS/KRAS (ratio of KD value for GDP-bound NRAS wild-type protein to KD value for KRAS): KD ratio class
[2] = system: human lung cancer strain NCI-H441
[3] = biological target: GDP-bound HRAS wild-type protein (Homo sapiens, UniProt P01112); assay: Binding to HRAS by surface plasmon resonance (SPR), Single Cycle Kinetics; conditions: SPR; for HRAS/KRAS (ratio of KD value for GDP-bound HRAS wild-type protein to KD value for KRAS): KD ratio class
[4] = system: human lung cancer strain NCI-H441; assay: cells; conditions: NCI-H441, 96 h, read-out: NCI-H441 IC50 (nM)
[5] = read-out: NCI-H441 IC50, NCI-H441 cells, 4 days, CellTiter-Glo

Sequence of GDP-bound HRAS wild-type protein (P01112 whole entry): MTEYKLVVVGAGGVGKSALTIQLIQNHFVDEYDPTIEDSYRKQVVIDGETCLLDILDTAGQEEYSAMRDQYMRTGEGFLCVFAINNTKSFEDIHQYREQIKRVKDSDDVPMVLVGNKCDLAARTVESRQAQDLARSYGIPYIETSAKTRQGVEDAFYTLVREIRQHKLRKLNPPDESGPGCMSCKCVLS
Sequence of GDP-bound NRAS wild-type protein (P01111 whole entry): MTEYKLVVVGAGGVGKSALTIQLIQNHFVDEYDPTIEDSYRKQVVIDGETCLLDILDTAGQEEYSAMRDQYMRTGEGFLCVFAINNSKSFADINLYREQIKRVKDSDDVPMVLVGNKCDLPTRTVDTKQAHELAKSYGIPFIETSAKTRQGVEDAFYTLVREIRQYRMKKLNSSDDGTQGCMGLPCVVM

| SMILES | NRAS/KRAS (ratio of KD for GDP-bound NRAS wild-type to KD for KRAS) ([1]; KD ratio NRAS/KRAS) | IC50 [2, 5] | HRAS/KRAS (ratio of KD for GDP-bound HRAS wild-type to KD for KRAS) ([3]; KD ratio HRAS/KRAS) | IC50 [2] | IC50 [4] | NRAS/KRAS (ratio of KD value for GDP-bound NRAS wild-type protein to KD value for KRAS) [1] | HRAS/KRAS (ratio of KD value for GDP-bound HRAS wild-type protein to KD value for KRAS) [3] |
| --- | --- | --- | --- | --- | --- | --- | --- |
| CCCN1C(=O)[C@@H]2CCN2C(=O)[C@H](C)N(C)C(=O)[C@H]([C@@H](C)CC)NC(=O)[C@H](CC(C)C)N(C)C(=O)C[C@@H](C(=O)N2CCOCC2)N(C)C(=O)[C@H](C2CCCC2)N(C)C(=O)C2(CCCC2)NC(=O)[C@@H]2CCCN2C(=O)[C@H](CCc2ccc(C(F)(F)F)c(Cl)c2)NC(=O)CN(C)C(=O)[C@@H]1C1CCCC1 [PP0054] ([NMeL]I[NMeA][Aze][X5][Sar][hPhe(3-Cl-4-CF3)]P[Ac5c][NMeGly(cPent)][NMeD]-Morpholide; lactam N-11) | C (A compound having a KD ratio of 0.1 or more and less than 3 is denoted as C) | 82 nM | C (A compound having a KD ratio of 0.1 or more and less than 3 is denoted as C) |  |  |  |  |
| CC[C@H](C)[C@@H]1NC(=O)[C@H](CC(C)C)N(C)C(=O)C[C@@H](C(=O)N(C)C)N(C)C(=O)[C@H](C2CCCC2)N(C)C(=O)C2(CCCC2)NC(=O)[C@@H]2CCCN2C(=O)[C@H](CCc2ccc(C(F)(F)F)c(Cl)c2)NC(=O)CN(C)C(=O)[C@H](Cc2ccc(C)cc2)N2C/C=C\COC[C@@H](C2=O)N(C)C(=O)CN(C)C1=O [PP0627] |  |  |  | 98.3 nM |  |  |  |
| CCCC[C@H]1C(=O)N[C@@H]([C@@H](C)CC)C(=O)N(C)CC(=O)N(C)[C@H]2C/C=C\CCN(C2=O)[C@@H](Cc2ccc(C(F)(F)F)cc2)C(=O)N(C)CC(=O)N[C@@H](CCc2cc(F)c(C(F)(F)F)c(F)c2)C(=O)N2C[C@H](OCC)C[C@H]2C(=O)NC2(CCC2)C(=O)N(C)[C@@H](C2CCCC2)C(=O)N(C)[C@H](C(=O)N(CC)CC)CC(=O)N1C [PP1576] |  |  |  |  | 7.6 nM | AA (a compound having 20 or more is denoted as AA) | A (a compound having 10 or more and less than 20 is denoted as A) |
| CCCOC[C@H]1C(=O)N[C@@H]([C@@H](C)CC)C(=O)N(C)CC(=O)N(C)[C@H]2C/C=C\CCN(C2=O)[C@@H](Cc2ccc(C)cc2)C(=O)N(C)CC(=O)N[C@@H](CCc2cc(F)c(C(F)(F)F)c(F)c2)C(=O)N2C[C@H](OCC)C[C@H]2C(=O)NC2(CC(C)(C)C2)C(=O)N(C)[C@@H](C2CCCC2)C(=O)N(C)[C@H](C(=O)N(C)CC)CC(=O)N1C [PP1577] |  |  |  |  | 6.7 nM | B (a compound having 3 or more and less than 10 is denoted as B) | B (a compound having 3 or more and less than 10 is denoted as B) |
| CCCOC[C@H]1C(=O)N[C@@H]([C@@H](C)CC)C(=O)N(C)CC(=O)N(C)[C@H]2C/C=C\CCN(C2=O)[C@@H](Cc2ccc(C)cc2)C(=O)N(C)CC(=O)N[C@@H](CCc2cc(F)c(C(F)(F)F)c(F)c2)C(=O)N2C[C@H](OCC)C[C@H]2C(=O)NC2(CC(C)(C)C2)C(=O)N(C)[C@@H](C2CCCC2)C(=O)N(C)[C@H](C(=O)N(CC)CC)CC(=O)N1C [PP1578] |  |  |  |  | 12.6 nM | A (a compound having 10 or more and less than 20 is denoted as A) | A (a compound having 10 or more and less than 20 is denoted as A) |
| CCO[C@@H]1C[C@H]2C(=O)NC3(CC(C)(C)C3)C(=O)N(C)[C@@H](C3CCCC3)C(=O)N(C)[C@H](C(=O)N(C)CC)CC(=O)N(C)[C@@H](CC)C(=O)N[C@@H]([C@@H](C)CC)C(=O)N(C)CC(=O)N(C)[C@H]3C/C=C\CCN(C3=O)[C@@H](Cc3ccc(C(F)(F)F)cc3)C(=O)N(C)CC(=O)N[C@@H](CCc3cc(F)c(C(F)(F)F)c(F)c3)C(=O)N2C1 [PP1579] |  |  |  |  | 4.1 nM | A (a compound having 10 or more and less than 20 is denoted as A) | B (a compound having 3 or more and less than 10 is denoted as B) |
| CCO[C@@H]1C[C@H]2C(=O)NC3(CC(C)(C)C3)C(=O)N(C)[C@@H](C3CCCC3)C(=O)N(C)[C@H](C(=O)N(CC)CC)CC(=O)N(C)[C@@H](CC)C(=O)N[C@@H]([C@@H](C)CC)C(=O)N(C)CC(=O)N(C)[C@H]3C/C=C\CCN(C3=O)[C@@H](Cc3ccc(C(F)(F)F)cc3)C(=O)N(C)CC(=O)N[C@@H](CCc3cc(F)c(C(F)(F)F)c(F)c3)C(=O)N2C1 [PP1580] |  |  |  |  | 9.7 nM | A (a compound having 10 or more and less than 20 is denoted as A) | A (a compound having 10 or more and less than 20 is denoted as A) |
| CCO[C@@H]1C[C@H]2C(=O)NC3(CCC3)C(=O)N(C)[C@@H](C3CCCC3)C(=O)N(C)[C@H](C3CCCCC3)CC(=O)N(C)[C@@H](COC)C(=O)N[C@@H]([C@@H](C)CC)C(=O)N(C)CC(=O)N(C)[C@H]3C/C=C\CCN(C3=O)[C@@H](Cc3ccc(C(F)(F)F)cc3)C(=O)N(C)CC(=O)N[C@@H](CCc3cc(F)c(C(F)(F)F)c(F)c3)C(=O)N2C1 [PP1584] |  |  |  |  | 66.4 nM | B (a compound having 3 or more and less than 10 is denoted as B) | B (a compound having 3 or more and less than 10 is denoted as B) |
| CCO[C@@H]1C[C@H]2C(=O)NC3(CC(C)(C)C3)C(=O)N(C)[C@@H](C3CCCC3)C(=O)N(C)[C@H](C(C)C)CC(=O)N(C)[C@@H](CC)C(=O)N[C@@H]([C@@H](C)CC)C(=O)N(C)CC(=O)N(C)[C@H]3C/C=C\CCN(C3=O)[C@@H](Cc3ccc(C(F)(F)F)cc3)C(=O)N(C)CC(=O)N[C@@H](CCc3cc(F)c(C(F)(F)F)c(F)c3)C(=O)N2C1 [PP1588] |  |  |  |  | 24.2 nM | B (a compound having 3 or more and less than 10 is denoted as B) | B (a compound having 3 or more and less than 10 is denoted as B) |
| CCO[C@@H]1C[C@H]2C(=O)NC3(CC(C)(C)C3)C(=O)N(C)[C@@H](C3CCCC3)C(=O)N(C)[C@@H](C(C)C)CC(=O)N(C)[C@@H](CC3CC3)C(=O)N[C@@H]([C@@H](C)CC)C(=O)N(C)CC(=O)N(C)[C@H]3C/C=C\CCN(C3=O)[C@@H](Cc3ccc(C(F)(F)F)cc3)C(=O)N(C)CC(=O)N[C@@H](CCc3cc(F)c(C(F)(F)F)c(F)c3)C(=O)N2C1 [PP1594] |  |  |  |  | 48.8 nM | A (a compound having 10 or more and less than 20 is denoted as A) | A (a compound having 10 or more and less than 20 is denoted as A) |
| CCO[C@@H]1C[C@H]2C(=O)NC3(CCC3)C(=O)N(C)[C@@H](C3CCCC3)C(=O)N(C)[C@@H](C(C)C)CC(=O)N(C)[C@@H](CC3CC3)C(=O)N[C@@H]([C@@H](C)CC)C(=O)N(C)CC(=O)N(C)[C@H]3C/C=C\CCN(C3=O)[C@@H](Cc3ccc(C(F)(F)F)cc3)C(=O)N(C)CC(=O)N[C@@H](CCc3cc(F)c(C(F)(F)F)c(F)c3)C(=O)N2C1 [PP1596] |  | 18.1 nM |  |  |  |  |  |
| CCO[C@@H]1C[C@H]2C(=O)NC3(CCC3)C(=O)N(C)[C@@H](C3CCCC3)C(=O)N(C)[C@H](C(C)C)CC(=O)N(C)[C@@H](CC)C(=O)N[C@@H]([C@@H](C)CC)C(=O)N(C)CC(=O)N(C)[C@H]3C/C=C\CCN(C3=O)[C@@H](CC3CCCCC3)C(=O)N(C)CC(=O)N[C@@H](CCc3cc(F)c(C(F)(F)F)c(F)c3)C(=O)N2C1 [PP1601] |  |  |  |  | 78.6 nM | B (a compound having 3 or more and less than 10 is denoted as B) | A (a compound having 10 or more and less than 20 is denoted as A) |
| CCO[C@@H]1C[C@H]2C(=O)NC3(CC(C)(C)C3)C(=O)N(C)[C@@H](C3CCCC3)C(=O)N(C)[C@H](C(C)C)CC(=O)N(C)[C@@H](CC)C(=O)N[C@@H]([C@@H](C)CC)C(=O)N(C)CC(=O)N(C)[C@H]3C/C=C\CCN(C3=O)[C@@H](CC3CCCCC3)C(=O)N(C)CC(=O)N[C@@H](CCc3cc(F)c(C(F)(F)F)c(F)c3)C(=O)N2C1 [PP1603] |  |  |  |  | 132 nM | B (a compound having 3 or more and less than 10 is denoted as B) | B (a compound having 3 or more and less than 10 is denoted as B) |
| CCO[C@@H]1C[C@H]2C(=O)NC3(CC(C)(C)C3)C(=O)N(C)[C@@H](C(CC)CC)C(=O)N3CCC[C@@H]3CC(=O)N(C)[C@@H](CC)C(=O)N[C@@H]([C@@H](C)CC)C(=O)N(C)CC(=O)N(C)[C@H]3C/C=C\CCN(C3=O)[C@@H](Cc3ccc(C(F)(F)F)cc3)C(=O)N(C)CC(=O)N[C@@H](CCc3cc(F)c(C(F)(F)F)c(F)c3)C(=O)N2C1 [PP1605] |  |  |  |  | 31.6 nM | A (a compound having 10 or more and less than 20 is denoted as A) | A (a compound having 10 or more and less than 20 is denoted as A) |
| CCO[C@@H]1C[C@H]2C(=O)NC3(CC(C)(C)C3)C(=O)N(C)[C@@H](C3CCCC3)C(=O)N3CCC[C@@H]3CC(=O)N(C)[C@@H](CC)C(=O)N[C@@H]([C@@H](C)CC)C(=O)N(C)CC(=O)N(C)[C@H]3C/C=C\CCN(C3=O)[C@@H](Cc3ccc(C(F)(F)F)cc3)C(=O)N(C)CC(=O)N[C@@H](CCc3cc(F)c(C(F)(F)F)c(F)c3)C(=O)N2C1 [PP1606] |  |  |  |  | 12.6 nM | B (a compound having 3 or more and less than 10 is denoted as B) | B (a compound having 3 or more and less than 10 is denoted as B) |
